{"source": "patent US20240018145A1", "about": "“[…]-DEPENDENT EN[…] TREATING OR […]” (priority 2020, published 2024)"}
{"tested_on": "FLU A (PR/8/34)", "test": "Flu A Neuraminidase Antiviral Assay", "format": "cell-based", "units": {"EC50": "nM"}}
{"smiles": "CN1C(=O)c2c(O)c(=O)ccn2N2C(c3ccccc3)C(CCC3CC3)CCC12", "note": "(single isomer, unassigned) [Compound 115B, 2-(2-cyclopropylethyl)-7-hydroxy-5-methyl-1-phenyl-1,2,3,4,4a,5-hexahydrodipyrido[1,2-b:2′,1′-f][1,2,4]triazine-6,8-dione]", "EC50": "> 8100"}
{"smiles": "CN1C(=O)c2c(O)c(=O)ccn2N2C(c3ccccc3)C(CCC3CC3)CCC12", "note": "(single isomer, unassigned) [Compound 115C, 2-(2-cyclopropylethyl)-7-hydroxy-5-methyl-1-phenyl-1,2,3,4,4a,5-hexahydrodipyrido[1,2-b:2′,1′-f][1,2,4]triazine-6,8-dione]", "EC50": 2.7}
{"smiles": "CN1C(=O)c2c(O)c(=O)ccn2N2C(c3ccccc3)C(CCC3CC3)CCC12", "note": "(single isomer, unassigned) [Compound 115D, 2-(2-cyclopropylethyl)-7-hydroxy-5-methyl-1-phenyl-1,2,3,4,4a,5-hexahydrodipyrido[1,2-b:2′,1′-f][1,2,4]triazine-6,8-dione]", "EC50": 6.9}
{"smiles": "CN1C(=O)c2c(O)c(=O)ccn2N2C(c3ccccc3)C(c3cccc(F)c3F)CCC12", "note": "(single isomer, unassigned) [Compound 116A, 2-(2,3-difluorophenyl)-7-hydroxy-5-methyl-1-phenyl-1,2,3,4,4a,5-hexahydrodipyrido[1,2-b:2′,1′-f][1,2,4]triazine-6,8-dione]", "EC50": 6200}
{"smiles": "CN1C(=O)c2c(O)c(=O)ccn2N2C(c3ccccc3)C(c3cccc(F)c3F)CCC12", "note": "(single isomer, unassigned) [Compound 116B, 2-(2,3-difluorophenyl)-7-hydroxy-5-methyl-1-phenyl-1,2,3,4,4a,5-hexahydrodipyrido[1,2-b:2′,1′-f][1,2,4]triazine-6,8-dione]", "EC50": 6.9}
{"smiles": "CN1C(=O)c2c(O)c(=O)ccn2N2C(c3ccccc3)C(Cc3ccccc3)CCC12", "note": "(single isomer, unassigned) [Compound 117A, 2-benzyl-7-hydroxy-5-methyl-1-phenyl-1,2,3,4,4a,5-hexahydrodipyrido[1,2-b:2′,1′-f][1,2,4]triazine-6,8-dione]", "EC50": 3530}
{"smiles": "CN1C(=O)c2c(O)c(=O)ccn2N2C(c3ccccc3)C(Cc3ccccc3)CCC12", "note": "(single isomer, unassigned) [Compound 117B, 2-benzyl-7-hydroxy-5-methyl-1-phenyl-1,2,3,4,4a,5-hexahydrodipyrido[1,2-b:2′,1′-f][1,2,4]triazine-6,8-dione]", "EC50": 113}
{"smiles": "CN1C(=O)c2c(O)c(=O)ccn2N2C(c3ccccc3)C(CC(F)(F)F)CCC12", "note": "(single isomer, unassigned) [Compound 118A, 7-hydroxy-5-methyl-1-phenyl-2-(2,2,2-trifluoroethyl)-1,2,3,4,4a,5-hexahydrodipyrido[1,2-b:2′,1′-f][1,2,4]triazine-6,8-dione]", "EC50": "> 8100"}
{"smiles": "CN1C(=O)c2c(O)c(=O)ccn2N2C(c3ccccc3)C(CC(F)(F)F)CCC12", "note": "(single isomer, unassigned) [Compound 118B, 7-hydroxy-5-methyl-1-phenyl-2-(2,2,2-trifluoroethyl)-1,2,3,4,4a,5-hexahydrodipyrido[1,2-b:2′,1′-f][1,2,4]triazine-6,8-dione]", "EC50": 3.1}
{"smiles": "CN1C(=O)c2c(O)c(=O)ccn2N2C(c3ccccc3Cl)C(CC(F)(F)F)CCC12", "note": "(single isomer, unassigned) [Compound 119A, 1-(2-chlorophenyl)-7-hydroxy-5-methyl-2-(2,2,2-trifluoroethyl)-1,2,3,4,4a,5-hexahydrodipyrido[1,2-b:2′,1′-f][1,2,4]triazine-6,8-dione]", "EC50": 3080}
{"smiles": "CN1C(=O)c2c(O)c(=O)ccn2N2C(c3ccccc3Cl)C(CC(F)(F)F)CCC12", "note": "(single isomer, unassigned) [Compound 119B, 1-(2-chlorophenyl)-7-hydroxy-5-methyl-2-(2,2,2-trifluoroethyl)-1,2,3,4,4a,5-hexahydrodipyrido[1,2-b:2′,1′-f][1,2,4]triazine-6,8-dione]", "EC50": 2.7}
{"smiles": "Cc1ccccc1C1C(CC(F)(F)F)CCC2N(C)C(=O)c3c(O)c(=O)ccn3N12", "note": "(single isomer, unassigned) [Compound 120A, 7-hydroxy-5-methyl-1-(o-tolyl)-2-(2,2,2-trifluoroethyl)-1,2,3,4,4a,5-hexahydrodipyrido[1,2-b:2′,1′-f][1,2,4]triazine-6,8-dione]", "EC50": 2720}
{"smiles": "Cc1ccccc1C1C(CC(F)(F)F)CCC2N(C)C(=O)c3c(O)c(=O)ccn3N12", "note": "(single isomer, unassigned) [Compound 120B, 7-hydroxy-5-methyl-1-(o-tolyl)-2-(2,2,2-trifluoroethyl)-1,2,3,4,4a,5-hexahydrodipyrido[1,2-b:2′,1′-f][1,2,4]triazine-6,8-dione]", "EC50": 1.9}
{"smiles": "CN1C(=O)c2c(O)c(=O)ccn2N2C(c3cccc(F)c3)C(CC(F)(F)F)CCC12", "note": "(single isomer, unassigned) [Compound 121A, 1-(3-fluorophenyl)-7-hydroxy-5-methyl-2-(2,2,2-trifluoroethyl)-1,2,3,4,4a,5-hexahydrodipyrido[1,2-b:2′,1′-f][1,2,4]triazine-6,8-dione]", "EC50": 431}
{"smiles": "CN1C(=O)c2c(O)c(=O)ccn2N2C(c3cccc(F)c3)C(CC(F)(F)F)CCC12", "note": "(single isomer, unassigned) [Compound 121B, 1-(3-fluorophenyl)-7-hydroxy-5-methyl-2-(2,2,2-trifluoroethyl)-1,2,3,4,4a,5-hexahydrodipyrido[1,2-b:2′,1′-f][1,2,4]triazine-6,8-dione]", "EC50": 5.8}
{"smiles": "CN1C(=O)c2c(O)c(=O)ccn2N2C(c3ccc(F)cc3)C(CC(F)(F)F)CCC12", "note": "(single isomer, unassigned) [Compound 122A, 1-(4-fluorophenyl)-7-hydroxy-5-methyl-2-(2,2,2-trifluoroethyl)-1,2,3,4,4a,5-hexahydrodipyrido[1,2-b:2′,1′-f][1,2,4]triazine-6,8-dione]", "EC50": 343}
{"smiles": "CN1C(=O)c2c(O)c(=O)ccn2N2C(c3ccc(F)cc3)C(CC(F)(F)F)CCC12", "note": "(single isomer, unassigned) [Compound 122B, 1-(4-fluorophenyl)-7-hydroxy-5-methyl-2-(2,2,2-trifluoroethyl)-1,2,3,4,4a,5-hexahydrodipyrido[1,2-b:2′,1′-f][1,2,4]triazine-6,8-dione]", "EC50": 5.2}
{"smiles": "CN1C(=O)c2c(O)c(=O)ccn2N2C(c3c(F)cccc3F)C(CC(F)(F)F)CCC12", "note": "(single isomer, unassigned) [Compound 123A, 1-(2,6-difluorophenyl)-7-hydroxy-5-methyl-2-(2,2,2-trifluoroethyl)-1,2,3,4,4a,5-hexahydrodipyrido[1,2-b:2′,1′-f][1,2,4] triazine-6,8-dione]", "EC50": "> 8100"}
{"smiles": "CN1C(=O)c2c(O)c(=O)ccn2N2C(c3c(F)cccc3F)C(CC(F)(F)F)CCC12", "note": "(single isomer, unassigned) [Compound 123B, 1-(2,6-difluorophenyl)-7-hydroxy-5-methyl-2-(2,2,2-trifluoroethyl)-1,2,3,4,4a,5-hexahydrodipyrido[1,2-b:2′,1′-f][1,2,4] triazine-6,8-dione]", "EC50": 4.2}
{"smiles": "CN1C(=O)c2c(O)c(=O)ccn2N2C(c3c(F)cccc3F)C(CC(F)(F)F)CCC12", "note": "(single isomer, unassigned) [Compound 123C, 1-(2,6-difluorophenyl)-7-hydroxy-5-methyl-2-(2,2,2-trifluoroethyl)-1,2,3,4,4a,5-hexahydrodipyrido[1,2-b:2′,1′-f][1,2,4] triazine-6,8-dione]", "EC50": "> 8100"}
{"smiles": "CN1C(=O)c2c(O)c(=O)ccn2N2C(c3c(F)cccc3F)C(CC(F)(F)F)CCC12", "note": "(single isomer, unassigned) [Compound 123D, 1-(2,6-difluorophenyl)-7-hydroxy-5-methyl-2-(2,2,2-trifluoroethyl)-1,2,3,4,4a,5-hexahydrodipyrido[1,2-b:2′,1′-f][1,2,4] triazine-6,8-dione]", "EC50": 26.9}
{"smiles": "CN1C(=O)c2c(O)c(=O)ccn2N2C(c3ccccc3)C(CCC(F)F)CCC12", "note": "(single isomer, unassigned) [Compound 124A, 2-(3,3-difluoropropyl)-7-hydroxy-5-methyl-1-phenyl-1,2,3,4,4a,5-hexahydrodipyrido[1,2-b:2′,1′-f][1,2,4]triazine-6,8-dione]", "EC50": 871}
{"smiles": "CN1C(=O)c2c(O)c(=O)ccn2N2C(c3ccccc3)C(CCC(F)F)CCC12", "note": "(single isomer, unassigned) [Compound 124B, 2-(3,3-difluoropropyl)-7-hydroxy-5-methyl-1-phenyl-1,2,3,4,4a,5-hexahydrodipyrido[1,2-b:2′,1′-f][1,2,4]triazine-6,8-dione]", "EC50": 1.6}
{"smiles": "COc1ccccc1C1C(CC(F)(F)F)CCC2N(C)C(=O)c3c(O)c(=O)ccn3N12", "note": "(single isomer, unassigned) [Compound 125A, 7-hydroxy-1-(2-methoxyphenyl)-5-methyl-2-(2,2,2-trifluoroethyl)-1,2,3,4,4a,5-hexahydrodipyrido[1,2-b:2′,1′-f][1,2,4]triazine-6,8-dione]", "EC50": 1020}
{"smiles": "COc1ccccc1C1C(CC(F)(F)F)CCC2N(C)C(=O)c3c(O)c(=O)ccn3N12", "note": "(single isomer, unassigned) [Compound 125B, 7-hydroxy-1-(2-methoxyphenyl)-5-methyl-2-(2,2,2-trifluoroethyl)-1,2,3,4,4a,5-hexahydrodipyrido[1,2-b:2′,1′-f][1,2,4]triazine-6,8-dione]", "EC50": 2.5}
{"smiles": "CN1C(=O)c2c(O)c(=O)ccn2N2C(c3ccccc3)C(CC(C)(F)F)CCC12", "note": "(single isomer, unassigned) [Compound 126A, 2-(2,2-difluoropropyl)-7-hydroxy-5-methyl-1-phenyl-1,2,3,4,4a,5-hexahydrodipyrido[1,2-b:2′,1′-f][1,2,4]triazine-6,8-dione]", "EC50": "> 8100"}
{"smiles": "CN1C(=O)c2c(O)c(=O)ccn2N2C(c3ccccc3)C(CC(C)(F)F)CCC12", "note": "(single isomer, unassigned) [Compound 126B, 2-(2,2-difluoropropyl)-7-hydroxy-5-methyl-1-phenyl-1,2,3,4,4a,5-hexahydrodipyrido[1,2-b:2′,1′-f][1,2,4]triazine-6,8-dione]", "EC50": 16.1}
{"smiles": "CN1C(=O)c2c(O)c(=O)ccn2N2C(c3ccccc3F)C(CC(F)(F)F)CCC12", "note": "(single isomer, unassigned) [Compound 127A, 1-(2-fluorophenyl)-7-hydroxy-5-methyl-2-(2,2,2-trifluoroethyl)-1,2,3,4,4a,5-hexahydrodipyrido[1,2-b:2′,1′-f][1,2,4]triazine-6,8-dione]", "EC50": 3500}
